Laboratory results taken from patent US20100267031A1, “Method of Screening for RAGE-Amyloid-Beta Peptide Interaction Inhibiting Materials” (priority 2007, published 2010).

System: bEND.3 cells
Assay: Comparison of passage through intercellular space (standard materials, with or without mannitol)
Assay type: in vitro ADME, mouse
Details: wells treated with mannitol (0.8 M) vs not treated; 20 min intervals over 120 min
Procedure: The cells were seeded on the inserts of 24-well Transwell plates and cultured for 5 days as described above examples. F—Na (10 μM, Sigma, Cat No. 28803), FD4 (1 mM, Sigma, Cat No. FD4), and FD40 (25 μM, Sigma, Cat No. FD40S), all labeled with fluorescence (FITC), were used as standard materials for intercellular passage comparison. Mannitol (0.8 M), known to interfere with the formation of intercellular tight junctions, was added to some wells while other wells were not treated with mannitol. Thereafter, the standard materials were added to the wells, followed by monitoring the fluorescence intensity in the lower compartment of the Transwell plates at regular intervals of 20 min over 120 min.
F—Na, FD4 and FD40 were 376 Da, 4,000 Da and 40,000 Da in size, respectively. When tight junctions are formed, the materials which can pass between cells are limited by the sizes thereof. Thus, the standard materials may be used as positive or negative controls. For example, when tight junctions are well formed, FD40 differs in passage through intercellular spaces from F—Na and FD4 due to difference in […] size.

O=C([O-])c1ccccc1-c1c2ccc(=O)cc-2oc2cc([O-])ccc12.[Na+].[Na+] [F—Na]
fluorescence intensity in the lower compartment: higher intensities were detected in the wells treated with mannitol
